{"source": "patent US9708325B2", "about": "“Sulfonimidoylpurinone compounds and derivatives for the treatment and prophylaxis of virus infection” (Hoffmann-La Roche Inc., priority 2015, dated 2017)", "key": {"[1]": {"tested_on": "Salmonella typhimurium tester strains (TA1535, TA97, TA98, TA100, and TA102)", "assay": "Ames microsuspension assay", "assay_type": "cell-based", "settings": "five strains, absence and presence of S9", "protocol": "The Ames microsuspension assay examines if a compound causes DNA mutations. The method was based on a modified pre-incubation version described by Kado et al (see references: B. N. Ames, J. McCann, E. Yamasaki, Mutation Res. 1975, 31, 347-364 N.Y. Kado, D. Langley, and E. Eisenstadt, Mutation Res. 1983, 121, 25-32). Five Salmonella typhimurium tester strains (TA1535, TA97, TA98, TA100, and TA102) were treated with the test compound in absence and in presence of an exogenous metabolic activation system (S9). The bacteria were pre-incubated for 1 h, the pre-incubation volume is 210 μL (100 μL of overnight culture, 100 μL of S9 mix (10% S9) or 100 μL phosphate buffer, and 10 μL test compound solution). The overnight cultures were resuspended for the test in cold phosphate buffer. The S9 mix contains potassium chloride, magnesium chloride, sodium phosphate buffered saline, NADP^+ and glucose-6-phosphate. The test tubes are incubated and shaken for 60 minutes at 37° C. 2.2 mL soft agar supplemented with L-histidine and biotin was added afterwards and the content of the tubes were mixed and poured on Vogel-Bonner minimal agar plates.\nThree replicate plates for the test compound and negative control or two replicate plates for the positive controls were incubated at 37° C., upside down, for 2 days. Colonies were counted electronically using an automatic image analysis system after having inspected the background lawn for signs of toxicity.\nS9 is an in vitro metabolic system which is obtained from liver homogenates by centrifuging them at 9000 g for 20 minutes. It contains CYP450 isoforms, phase-II metabolic enzymes, etc. In the Ames microsuspension assay test, S9 is used to assess mutagenicity of compounds, some of which require metabolic activation to become mutagenic.\nCriteria of the Ames microsuspension assay: a positive result is defined as a reproducible, dose-related increase in the number of revertant colonies in at least one of the strains. For TA1535 and TA98, the positive threshold is a 2-fold increase over control. For TA97, TA100 and TA102, the threshold is a 1.5-fold increase."}, "[2]": {"assay": "GSH adduct screening assay", "assay_type": "in vitro ADME, rat and human", "parameters": "key: No flag: No Flag: no GSH adduct formation observed when compared to control (DMSO)", "settings": "20 μM, RLM and HLM, 60 minutes", "protocol": "The formation of reactive metabolites is an unwanted drug property because of the idiosyncratic clinical adverse effect. GSH adduct formation is used to evaluate the formation of reactive metabolites in vitro. Positive controls were Diclofenac, Troglitazone, Nefazodone and mGluR5. Solvent control was DMSO.\nAll compounds including positive and solvent control were incubated using a 96-deep-well plate (Eppendorf) at 20 μM (addition of 1 μL of 10 mM DMSO stock solution) in 450 μL of 0.1 M sodium phosphate buffer at pH 7.4 containing rat liver microsomes (RLM) and human liver microsomes (HLM). Microsomal protein concentration is 1 mg/mL. Pipetting was performed using a TECAN pipetting robot. The buffer was prepared at room temperature by combining 2.62 g NaH2PO4.1H2O and 14.43 g Na2HPO4.2H2O dissolved in H2O (Millipore, >18 MΩ) to a weight of 1000 g (pH 7.4). After 5 minutes of pre-incubation at 37° C. the reaction was started by adding 50 μL of buffer containing GSH (100 mM) and NADPH (20 mM). Fresh stock solutions of GSH and NADPH were prepared straight before each experiment. The final concentrations were […] for GSH and 1 mM for NADPH. After 60 minutes of incubation at 37° C. (shaking at 800 rpm) the reaction is quenched with 500 μL of cold acetonitrile and centrifuged at 5000×g at 25° C. for 11 minutes. Before LC-MS/MS analysis the supernatant was split to two fractions, 450 μL and 400 each followed by evaporation using a N2 stream at 35° C. to a volume of approximately […].\nSample clean-up and chromatography of analytes were performed on-line by a column-switching set-up of two HPLC columns. From each sample 50 μL were injected (Shimadzu SilHTC) and loaded with water containing 0.1% formic acid onto a trapping column (Waters Oasis HLB 2.1×10 mm, 25 μm) with a flow rate of 0.3 mL/min. After 1.5 min the trapped analytes were then flushed (included a change in flow direction on the trapping column) onto an analytical column (Waters Atlantis T3 2.1×100 mm, 3 μm) with a total flow of 0.2 mL/min starting with 95/5% water containing 0.1% formic acid/acetonitrile. The fraction of acetonitrile was increased to 20% acetonitrile between 2 and 2.5 minutes, to 70% at 10 minutes and to 98% at 11 minutes. After 12 minutes the analytical column was equilibrated to start conditions (5% acetonitrile). […] The total running time was 14 min per sample.\nA triple quadrupole-linear ion trap mass spectrometer 4000 Qtrap equipped with an electrospray ionization source (Turbo V) was used, both from Applied Biosystems/MDS Sciex. Based on a published method of Dieckhaus et al. (2005) a precursor ion survey scan (PreIS) method was used to detect GSH-conjugates in negative ion mode. Briefly, as survey scan ions (400 to 900 amu within 2 seconds) are scanned for precursors of m/z 272 amu, the ion spray voltage was −4200 V, the source temperature 500° C., nitrogen was used as curtain and collision gas. If the parent molecule exceeds a molecular mass of 500 the scan range was changed to 500 amu to 1000 amu within 2 seconds. For signals in the survey scan exceeding 7500 cts (that was approximately 5 times of the background signal), enhanced resolution scan and enhanced product ion scan were triggered which allowed isotope determination and confirmation of a positive GSH adduct by the presence of diagnostic fragment ions. Further instrument settings were as following: Curtain gas: 30 psi, CAD gas: 10 psi Gas 1: 30 psi, Gas 2: 50 psi, declustering potential: −70 V, entrance potential: −10 V, collision energy: −24 V, and cell exit potential −15 V. Data acquisition was performed using Analyst 1.4.2, data analysis, i.e. sample control (solvent) comparisons were performed with Metabolite ID 1.3 (Applied Biosystems/MDS Sciex). (reference: Dieckhaus, C. M., Fernandez-Metzler, C. L., King, R., Krolikowski, P. H., and Baillie, T. A. (2005). Negative ion tandem mass spectrometry for the detection of glutathione conjugates. Chem Res Toxicol 18, 630-638)."}}}
{"compound": "CCCS(=N)(=O)c1nc(N)c2[nH]c(=O)n(Cc3ccccc3)c2n1", "note": "(single isomer, unassigned) [Example 4-A, 6-Amino-9-benzyl-2-(propylsulfonimidoyl)-7H-purin-8-one]", "values": [{"measurement": "Ames result", "setting": "[1]", "value": "negative"}, {"measurement": "GSH results", "setting": "[2]", "value": "No flag"}]}
{"compound": "CCCS(=N)(=O)c1nc(N)c2[nH]c(=O)n(Cc3ccccc3)c2n1", "note": "(single isomer, unassigned) [Example 4-B, 6-Amino-9-benzyl-2-(propylsulfonimidoyl)-7H-purin-8-one]", "values": [{"measurement": "Ames result", "setting": "[1]", "value": "negative"}, {"measurement": "GSH results", "setting": "[2]", "value": "No flag"}]}
{"compound": "CCCS(=N)(=O)c1nc(N)c2[nH]c(=O)n(Cc3ccc(C)cc3)c2n1", "note": "(single isomer, unassigned) [Example 29-A, 6-Amino-2-(propylsulfonimidoyl)-9-(p-tolylmethyl)-7H-purin-8-one]", "values": [{"measurement": "Ames result", "setting": "[1]", "value": "negative"}, {"measurement": "GSH results", "setting": "[2]", "value": "No flag"}]}
{"compound": "CCS(=N)(=O)c1nc(N)c2[nH]c(=O)n(Cc3ccc(Cl)cc3)c2n1", "note": "(single isomer, unassigned) [Example 70-A, 6-Amino-9-[(4-chlorophenyl)methyl]-2-(ethylsulfonimidoyl)-7H-purin-8-one]", "values": [{"measurement": "Ames result", "setting": "[1]", "value": "negative"}, {"measurement": "GSH results", "setting": "[2]", "value": "No flag"}]}
{"compound": "CCS(=N)(=O)c1nc(N)c2[nH]c(=O)n(Cc3ccc(Cl)cc3)c2n1", "note": "(single isomer, unassigned) [Example 70-B, 6-Amino-9-[(4-chlorophenyl)methyl]-2-(ethylsulfonimidoyl)-7H-purin-8-one]", "values": [{"measurement": "Ames result", "setting": "[1]", "value": "negative"}, {"measurement": "GSH results", "setting": "[2]", "value": "No flag"}]}
{"compound": "CCS(=N)(=O)c1nc(N)c2[nH]c(=O)n(Cc3ccc(C)cc3)c2n1", "note": "(single isomer, unassigned) [Example 71-A, 6-Amino-2-(ethylsulfonimidoyl)-9-(p-tolylmethyl)-7H-purin-8-one]", "values": [{"measurement": "Ames result", "setting": "[1]", "value": "negative"}, {"measurement": "GSH results", "setting": "[2]", "value": "No flag"}]}
{"compound": "CCCS(=N)(=O)c1nc(N)c2[nH]c(=O)n(Cc3ccccc3)c2n1", "note": "(stereo not shown) [Example 4, 6-Amino-9-benzyl-2-(propylsulfonimidoyl)-7H-purin-8-one]", "values": [{"measurement": "Ames result", "setting": "[1]", "value": "negative"}, {"measurement": "GSH results", "setting": "[2]", "value": "No flag"}]}
{"compound": "CCCS(=N)(=O)c1nc(N)c2[nH]c(=O)n(Cc3ccc(Cl)cc3)c2n1", "note": "(stereo not shown) [Example 9, 6-Amino-9-[(4-chlorophenyl)methyl]-2-(propylsulfonimidoyl)-7H-purin-8-one]", "values": [{"measurement": "Ames result", "setting": "[1]", "value": "negative"}, {"measurement": "GSH results", "setting": "[2]", "value": "No flag"}]}
{"compound": "CCCS(=N)(=O)c1nc(N)c2[nH]c(=O)n(Cc3ccc(F)c(F)c3)c2n1", "note": "(stereo not shown) [Example 27, 6-Amino-9-(3,4-difluorophenylmethyl)-2-(propylsulfonimidoyl)-7H-purin-8-one]", "values": [{"measurement": "Ames result", "setting": "[1]", "value": "negative"}, {"measurement": "GSH results", "setting": "[2]", "value": "No flag"}]}
{"compound": "CCCS(=N)(=O)c1nc(N)c2[nH]c(=O)n(Cc3ccc(C)nc3)c2n1", "note": "(stereo not shown) [Example 34, 6-Amino-9-[(6-methyl-3-pyridyl)methyl]-2-(propylsulfonimidoyl)-7H-purin-8-one]", "values": [{"measurement": "Ames result", "setting": "[1]", "value": "negative"}, {"measurement": "GSH results", "setting": "[2]", "value": "No flag"}]}
{"compound": "CCCS(=N)(=O)c1nc(N)c2[nH]c(=O)n(Cc3ccc(C(=O)O)cc3)c2n1", "note": "(stereo not shown) [Example 39, 4-[[6-Amino-8-oxo-2-(propylsulfonimidoyl)-7H-purin-9-yl]methyl]benzoic acid]", "values": [{"measurement": "Ames result", "setting": "[1]", "value": "negative"}, {"measurement": "GSH results", "setting": "[2]", "value": "No flag"}]}
